Results published in patent US20240115654A1, “INTRAVENOUS ADMINISTRATION OF ENGINEERED ANTIMICROBIAL AMPHIPHILIC PEPTIDES” (priority 2021, published 2024).
Converted amounts (≈) assume the structure as drawn. Peptide text beside a SMILES is read from it.

Tests used:
Format in all cases: cell-based
[1] = system: Enterococcus faecalis ATCC 700802 (V583 VRE); conditions: ATCC 700802
Method: (§1) Each peptide was formulated in PBS buffer prior to testing. Peptides of SEQ ID NO:5 and SEQ ID NO:8 were brought up in 100% DMSO with 0.002% polysorbate-80 at 1.28 mg/mL (40× the highest final test concentration of 32 mcg/mL). Final test concentration of DMSO was 2.5% in the assay at the first dilution for those two compounds.
(§2) Mueller Hinton II broth (MHB II; BD; Lot Nos. 6258541 and 7143896) was used for MIC testing of aerobic organisms. 0.002% polysorbate 80 (P80) was added to the test medium.
(§3) MIC values were determined using a broth microdilution procedure described by CLSI (1, 3). Automated liquid handlers (Multidrop 384, Labsystems, Helsinki, Finland; Biomek 2000 and Biomek FX, Beckman Coulter, Fullerton CA) were used to conduct serial dilutions and liquid transfers.
(§4) To prepare the drug mother plates, which would provide the serial peptide dilutions for the replicate daughter plates, the wells of columns 2-12 of standard 96-well microdilution plates (Costar 3795) were filled with 150 μl of the designated diluent for each row of peptide. The test articles and comparator compounds (300 μl at 40× the highest concentration to be tested) were dispensed into the appropriate wells in column 1. The Biomek 2000 was then used to make 2-fold serial dilutions in the mother plates from column 1 through column 11. The wells of Column 12 contained no drug and served as the organism growth control wells for the assay.
(§5) The daughter plates were loaded with 185 μL per well of MHB II using the Multidrop 384. The daughter plates were completed on the Biomek FX instrument which transferred 5 uL of peptide solution from each well of a mother plate to the corresponding well of each daughter plate in a single step. A standardized inoculum of each test organism was prepared per CLSI methods. The inoculum for each organism was dispensed into sterile reservoirs divided by length (Beckman Coulter), and the Biomek 2000 was used to inoculate the plates. Daughter plates were placed on the Biomek 2000 work surface in reverse orientation so that inoculation took place from low to high drug concentration. The plates were then inoculated with 10 μL of the inoculum resulting in a final cell density of approximately 5×10^5 CFU/mL, per well.
(§6) Plates were stacked 3-4 high, covered with a lid on the top plate, placed in plastic bags, and incubated at 35° C. for 16 to 20 hrs. Following incubation, the microplates were removed from the incubator and viewed from the bottom using a plate viewer. […] The MIC was read and recorded as the lowest concentration of peptide that inhibited visible growth of the organism.

[2] = system: Staphylococcus aureus NRS382 (USA100; HA-MRSA); conditions: USA100
Method: as §1, §2, §3, §4, §5, §6

[3] = system: Escherichia coli ATCC BAA-2471 (NDM-1); conditions: ATCC BAA-2471
Method: as §1, §2, §3, §4, §5, §6

[4] = system: Acinetobacter baumannii ATCC 19606 (non-MDR); conditions: ATCC 19606
Method: as §1, §2, §3, §4, §5, §6

[5] = system: Staphylococcus aureus ATCC 43300 (MRSA); conditions: ATCC 43300
Method: as §1, §2, §3, §4, §5, §6

[6] = system: Enterococcus faecium ATCC 51559 (VRE); conditions: ATCC 51559
Method: as §1, §2, §3, §4, §5, §6

[7] = system: Enterococcus faecalis ATCC 29212 (VSE; QC); conditions: ATCC 29212
Method: as §1, §2, §3, §4, §5, §6

[8] = system: Staphylococcus aureus ATCC 29213 (MSSA; QC); conditions: ATCC 29213
Method: as §1, §2, §3, §4, §5, §6

[9] = system: Pseudomonas aeruginosa ATCC BAA-2109 (MDR); conditions: ATCC BAA-2109
Method: as §1, §2, §3, §4, §5, §6

[10] = system: Streptococcus pneumoniae ATCC 49619 (QC); conditions: ATCC 49619
Method: as §1, §2, §3, §4, §5, §6

[11] = system: Pseudomonas aeruginosa ATCC 27853 (non-MDR; QC); conditions: ATCC 27853
Method: as §1, §2, §3, §4, §5, §6

[12] = system: Klebsiella pneumoniae ATCC BAA-1705 (KPC); conditions: ATCC BAA-1705
Method: as §1, §2, §3, §4, §5, §6

[13] = system: Escherichia coli ATCC 35218 (ESBL); conditions: ATCC 35218
Method: as §1, §2, §3, §4, §5, §6

[14] = system: Streptococcus pyogenes ATCC 49399; conditions: ATCC 49399
Method: as §1, §2, §3, §4, §5, §6

[15] = system: Escherichia coli ATCC 25922 (QC); conditions: ATCC 25922
Method: as §1, §2, §3, §4, §5, §6

[16] = system: Acinetobacter baumannii ATCC BAA-1797 (MDR); conditions: ATCC BAA-1797
Method: as §1, §2, §3, §4, §5, §6

| Compound | MIC [1] [µg/mL] | MIC [2] [µg/mL] | MIC [3] [µg/mL] | MIC [4] [µg/mL] | MIC [5] [µg/mL] | MIC [6] [µg/mL] | MIC [7] [µg/mL] | MIC [8] [µg/mL] | MIC [9] [µg/mL] | MIC [10] [µg/mL] | MIC [11] [µg/mL] | MIC [12] [µg/mL] | MIC [13] [µg/mL] | MIC [14] [µg/mL] | MIC [15] [µg/mL] | MIC [16] [µg/mL] |
| --- | --- | --- | --- | --- | --- | --- | --- | --- | --- | --- | --- | --- | --- | --- | --- | --- |
| CC[C@H](C)[C@H](N)C(=O)N[C@@H](CCCNC(=N)N)C(=O)N[C@@H](CCCNC(=N)N)C(=O)N[C@@H](CCCNC(=N)N)C(=O)N[C@@H](CCCNC(=N)N)C(=O)N[C@@H](CCCNC(=N)N)C(=O)N[C@@H](CCCNC(=N)N)C(=O)N[C@H](C(=O)N[C@@H](CCCNC(=N)N)C(=O)N[C@@H](CCCNC(=N)N)C(=O)N[C@@H](CCCNC(=N)N)C(=O)N[C@@H](CCCNC(=N)N)C(=O)N[C@@H](CCCNC(=N)N)C(=O)N[C@@H](CCCNC(=N)N)C(=O)O)[C@@H](C)CC [SEQ ID NO: 2] (H-IRRRRRRIRRRRRR-OH; N-terminus and C-terminus assumed) | >32 | 8 (≈ 3.78 µM) | 32 (≈ 15.1 µM) | 32 (≈ 15.1 µM) | 16 (≈ 7.55 µM) | 16 (≈ 7.55 µM) | >32 | 16 (≈ 7.55 µM) | 8 (≈ 3.78 µM) | >32 | >32 | >32 | 16 (≈ 7.55 µM) | 32 (≈ 15.1 µM) | 16 (≈ 7.55 µM) |  |
| CC[C@H](C)[C@H](N)C(=O)N[C@@H](CCCNC(=N)N)C(=O)N[C@@H](CCCNC(=N)N)C(=O)N[C@@H](CCCNC(=N)N)C(=O)N[C@H](C(=O)N[C@@H](CCCNC(=N)N)C(=O)N[C@@H](CCCNC(=N)N)C(=O)N[C@H](C(=O)N[C@@H](CCCNC(=N)N)C(=O)N[C@@H](CCCNC(=N)N)C(=O)N[C@@H](CCCNC(=N)N)C(=O)N[C@H](C(=O)N[C@@H](CCCNC(=N)N)C(=O)N[C@@H](CCCNC(=N)N)C(=O)N[C@H](C(=O)N[C@@H](CCCNC(=N)N)C(=O)N[C@@H](CCCNC(=N)N)C(=O)N[C@@H](CCCNC(=N)N)C(=O)N[C@H](C(=O)N[C@@H](CCCNC(=N)N)C(=O)N[C@@H](CCCNC(=N)N)C(=O)O)[C@@H](C)CC)[C@@H](C)CC)[C@@H](C)CC)[C@@H](C)CC)[C@@H](C)CC [SEQ ID NO: 3] (H-IRRRIRRIRRRIRRIRRRIRR-OH; N-terminus and C-terminus assumed) | >32 | 8 (≈ 2.63 µM) | 4 (≈ 1.32 µM) | 8 (≈ 2.63 µM) | 8 (≈ 2.63 µM) | 4 (≈ 1.32 µM) | 32 (≈ 10.5 µM) | 8 (≈ 2.63 µM) | 2 (≈ 0.658 µM) | 32 (≈ 10.5 µM) | 4 (≈ 1.32 µM) | 32 (≈ 10.5 µM) | 4 (≈ 1.32 µM) | 16 (≈ 5.26 µM) | 4 (≈ 1.32 µM) |  |
| CC(C)[C@H](N)C(=O)N[C@@H](Cc1c[nH]c2ccccc12)C(=O)N[C@@H](CCCNC(=N)N)C(=O)N[C@@H](Cc1c[nH]c2ccccc12)C(=O)N[C@H](C(=O)N[C@@H](CCCNC(=N)N)C(=O)N[C@@H](CCCNC(=N)N)C(=O)N[C@H](C(=O)N[C@@H](Cc1c[nH]c2ccccc12)C(=O)N[C@@H](CCCNC(=N)N)C(=O)N[C@@H](Cc1c[nH]c2ccccc12)C(=O)N[C@H](C(=O)N[C@@H](CCCNC(=N)N)C(=O)N[C@@H](CCCNC(=N)N)C(=O)O)C(C)C)C(C)C)C(C)C [SEQ ID NO: 6] (H-VWRWVRRVWRWVRR-OH; N-terminus and C-terminus assumed) | 4 (≈ 1.91 µM) | 0.5 (≈ 0.238 µM) | 1 (≈ 0.477 µM) | 0.5 (≈ 0.238 µM) | 0.5 (≈ 0.238 µM) | 0.5 (≈ 0.238 µM) | 2 (≈ 0.954 µM) | 0.5 (≈ 0.238 µM) | 8 (≈ 3.82 µM) | 8 (≈ 3.82 µM) | 16 (≈ 7.63 µM) | 4 (≈ 1.91 µM) | 1 (≈ 0.477 µM) | 4 (≈ 1.91 µM) | 2 (≈ 0.954 µM) | 0.5 (≈ 0.238 µM) |
| CC(C)[C@H](N)C(=O)N[C@@H](Cc1c[nH]c2ccccc12)C(=O)N[C@@H](CCCNC(=N)N)C(=O)N[C@@H](Cc1c[nH]c2ccccc12)C(=O)N[C@H](C(=O)N[C@@H](CCCNC(=N)N)C(=O)N[C@@H](CCCNC(=N)N)C(=O)N[C@H](C(=O)N[C@@H](Cc1c[nH]c2ccccc12)C(=O)N[C@@H](CCCNC(=N)N)C(=O)N[C@@H](Cc1c[nH]c2ccccc12)C(=O)N[C@H](C(=O)N[C@@H](CCCNC(=N)N)C(=O)N[C@@H](CCCNC(=N)N)C(=O)N[C@H](C(=O)N[C@@H](Cc1c[nH]c2ccccc12)C(=O)N[C@@H](CCCNC(=N)N)C(=O)N[C@@H](Cc1c[nH]c2ccccc12)C(=O)N[C@H](C(=O)N[C@@H](CCCNC(=N)N)C(=O)N[C@@H](CCCNC(=N)N)C(=O)O)C(C)C)C(C)C)C(C)C)C(C)C)C(C)C [SEQ ID NO: 5] (H-VWRWVRRVWRWVRRVWRWVRR-OH; N-terminus and C-terminus assumed) | 16 (≈ 5.1 µM) | 8 (≈ 2.55 µM) | 32 (≈ 10.2 µM) | 16 (≈ 5.1 µM) | 8 (≈ 2.55 µM) | 8 (≈ 2.55 µM) | 16 (≈ 5.1 µM) | 16 (≈ 5.1 µM) | 16 (≈ 5.1 µM) | 32 (≈ 10.2 µM) | >32 | >32 | 16 (≈ 5.1 µM) | 32 (≈ 10.2 µM) | 16 (≈ 5.1 µM) |  |
| CC(C)[C@H](N)C(=O)N[C@H](C(=O)N[C@@H](CCCNC(=N)N)C(=O)N[C@H](C(=O)N[C@H](C(=O)N[C@@H](CCCNC(=N)N)C(=O)N[C@@H](CCCNC(=N)N)C(=O)N[C@H](C(=O)N[C@H](C(=O)N[C@@H](CCCNC(=N)N)C(=O)N[C@H](C(=O)N[C@H](C(=O)N[C@@H](CCCNC(=N)N)C(=O)N[C@@H](CCCNC(=N)N)C(=O)O)C(C)C)C(C)C)C(C)C)C(C)C)C(C)C)C(C)C)C(C)C [SEQ ID NO: 7] (H-VVRVVRRVVRVVRR-OH; N-terminus and C-terminus assumed) | >32 | >32 | 16 (≈ 9.15 µM) | >32 | >32 | 16 (≈ 9.15 µM) | >32 | >32 | >32 | >32 | >32 | >32 | 32 (≈ 18.3 µM) | 16 (≈ 9.15 µM) | >32 | >32 |
